What was measured:
Type in all cases: binding
[1] = biological target: T1, CX3CR1 (Homo sapiens, UniProt P49238); experiment: NanoBRET screen HiBiT-CX3CR1 in HEK293; conditions: CX3CR1
T1 construct: purchased Promega (in-house HiBiT-GPCR construct library, NanoBRET)
T1 sequence (P49238 1-355): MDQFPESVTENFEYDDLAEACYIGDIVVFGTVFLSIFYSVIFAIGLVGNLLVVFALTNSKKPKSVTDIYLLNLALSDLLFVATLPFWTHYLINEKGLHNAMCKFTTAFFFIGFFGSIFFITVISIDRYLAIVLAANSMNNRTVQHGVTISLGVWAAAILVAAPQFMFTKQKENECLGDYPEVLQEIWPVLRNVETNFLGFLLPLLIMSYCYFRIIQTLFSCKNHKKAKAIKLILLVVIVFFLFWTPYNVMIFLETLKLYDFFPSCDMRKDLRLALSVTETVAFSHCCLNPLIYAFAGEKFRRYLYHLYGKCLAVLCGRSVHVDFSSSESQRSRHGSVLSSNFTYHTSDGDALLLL
Experimental: (§1) Each tracer candidate was screened across the entire library of HiBiT-GPCR constructs using NanoBRET as the detection modality. As depicted in Figure 4A, the specificity of interactions was evaluated through decrease in BRET due to competitive displacement of a bound tracer by excess parental compound. Each tracer was analyzed for binding to each HiBiT-GPCR fusion in the absence and in the presence of competing parental compound. Briefly, HEK293 cells were transfected with HiBiT-GPCR constructs diluted into promoterless DNA to reduce expression and maximize translocation to the cell surface. Each tracer candidate was then screened at concentrations of 1 μM and 0.1 μM across cells expressing these fusions. Cells were treated for 1.5 h with tracer either alone or in the presence of 20 μM competing parental compound (i.e., control). BRET was measured upon addition of purified LgBiT and subsequent complementation with HiBiT genetically fused to a GPCR. The specificity of interactions was assessed through a decrease in BRET signal due to competitive displacement of the bound tracer. To further gauge the robustness of these interactions, the fold response over the control (i.e., BRETtracer/BRETcontrol) was calculated. We chose a 1.5-fold response, which translates to ≥7-fold signal over noise as the minimal threshold required to score an interaction as positive. […]. Below we highlight the screening results obtained for our exemplary fluorescent tracers based on Clozapine, Amitriptyline and AZD1283.
(§2) HiBiT-GPCR DNA constructs were diluted in 10 mM Tris pH 8 to a final concentration of 0.01 μg/μL, arrayed in 96-well plates and stored at −20 °C. For transfection, HEK293 cells were suspended in Opti-MEM (without phenol red) supplemented with 2% fetal bovine serum (Seradigm) and 100 units/mL penicillin–streptomycin (Gibco) at a final concentration of 220,000 cells/mL and dispensed into white 96-well plates at 90 μL/well. Subsequent transfections and screens were carried using an Agilent Bravo Automated Liquid Handling Platform. First, the 96-well HiBiT DNA arrays were diluted 25-fold in Opti-MEM (without serum or phenol red) to a final concentration of 0.0004 μg/μL and 20 μL of the diluted DNAs were transferred into new 96-well plates. Next, promoterless carrier DNA (1 μg/μL) was diluted 25-fold (0.04 μg/μL) and then dispensed into the diluted arrays at 20 μL/well. Following brief mixing, Viafect transfection reagent (Promega) diluted 16-fold into Opti-MEM was dispensed into the plates at 40 μL/well. After mixing by pipetting, plates were incubated for 10 min on the pipetting station deck. The DNA-transfection reagent complexes were then added to plates containing cells. To facilitate the screen, 10 μL of DNA-transfection reagent complexes were added in duplicates to the top 4 and bottom 4 rows, resulting in two identical 48-well arrays per plate. Plates with transfected cells were incubated for 18–20 h at 37 °C/5% CO2. A screen of each tracer across the entire library using two different concentrations requires duplicate plates of transfected cells. Depending on the number of tracers being screened, transfections can be scaled up using the same ratios. The next day, for each tracer, four 20× screening solutions in tracer dilution buffer (Promega) were prepared: two duplicates at final concentration of 20 μM and two duplicates at a final concentration of 2 μM. A competing unmodified compound was added to one of each duplicate at a final concentration of 400 μM. The four resulting solutions were diluted 4-fold in Opti-MEM without serum or phenol red to generate 5× solutions (5 µM and 0.5 µM tracer +/− 100 μM competing compound). To screen the library, a BioTek MultiFlo FX liquid dispenser was used to dispense 22.5 µL of tracer solution to the top 4 rows and 22.5 µL tracer + competing compound solution to the 4 bottom rows. Plates were briefly mixed on an orbital shaker and incubated for 1.5 h at room temperature. […]

[2] = biological target: T2, CCKBR (Homo sapiens, UniProt P32239); experiment: NanoBRET screen HiBiT-CCKBR in HEK293; conditions: CCKBR
T2 construct: purchased Promega (in-house HiBiT-GPCR construct library, NanoBRET)
T2 sequence (P32239 1-447): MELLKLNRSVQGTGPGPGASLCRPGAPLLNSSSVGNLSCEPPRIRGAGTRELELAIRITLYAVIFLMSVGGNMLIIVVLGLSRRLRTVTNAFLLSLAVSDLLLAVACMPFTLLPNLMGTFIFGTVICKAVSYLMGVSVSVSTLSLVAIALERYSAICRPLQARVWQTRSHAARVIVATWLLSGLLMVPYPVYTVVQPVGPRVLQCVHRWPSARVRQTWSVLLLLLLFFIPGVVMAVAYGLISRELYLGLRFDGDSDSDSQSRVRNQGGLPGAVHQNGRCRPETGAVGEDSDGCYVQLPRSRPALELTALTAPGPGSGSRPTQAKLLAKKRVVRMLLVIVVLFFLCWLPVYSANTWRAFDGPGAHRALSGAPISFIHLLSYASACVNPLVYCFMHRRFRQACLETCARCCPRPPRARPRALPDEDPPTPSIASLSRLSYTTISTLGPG
Experimental: as §1, §2

[3] = biological target: T3, C3AR1 (Homo sapiens, UniProt Q16581); experiment: NanoBRET screen HiBiT-C3AR1 in HEK293; conditions: C3AR1
T3 construct: purchased Promega (in-house HiBiT-GPCR construct library, NanoBRET)
T3 sequence (Q16581 1-482): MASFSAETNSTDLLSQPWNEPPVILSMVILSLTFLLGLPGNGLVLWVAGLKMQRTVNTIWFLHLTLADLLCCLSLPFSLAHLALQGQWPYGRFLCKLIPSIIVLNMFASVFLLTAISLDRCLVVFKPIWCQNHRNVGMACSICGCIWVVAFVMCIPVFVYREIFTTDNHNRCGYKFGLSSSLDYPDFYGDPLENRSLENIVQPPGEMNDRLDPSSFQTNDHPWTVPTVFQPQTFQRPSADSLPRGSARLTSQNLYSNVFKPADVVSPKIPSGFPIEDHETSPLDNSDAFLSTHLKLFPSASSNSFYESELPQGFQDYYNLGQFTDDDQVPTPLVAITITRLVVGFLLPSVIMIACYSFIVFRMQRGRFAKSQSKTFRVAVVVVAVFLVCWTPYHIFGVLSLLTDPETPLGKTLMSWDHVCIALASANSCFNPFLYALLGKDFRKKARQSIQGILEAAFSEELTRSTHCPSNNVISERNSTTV
Experimental: as §1, §2

[4] = biological target: T4, LHCGR (Homo sapiens, UniProt P22888); experiment: NanoBRET screen HiBiT-LHCGR in HEK293; conditions: LHCGR
T4 construct: purchased Promega (in-house HiBiT-GPCR construct library, NanoBRET)
Experimental: as §1, §2

T4 sequence (P22888 27-699): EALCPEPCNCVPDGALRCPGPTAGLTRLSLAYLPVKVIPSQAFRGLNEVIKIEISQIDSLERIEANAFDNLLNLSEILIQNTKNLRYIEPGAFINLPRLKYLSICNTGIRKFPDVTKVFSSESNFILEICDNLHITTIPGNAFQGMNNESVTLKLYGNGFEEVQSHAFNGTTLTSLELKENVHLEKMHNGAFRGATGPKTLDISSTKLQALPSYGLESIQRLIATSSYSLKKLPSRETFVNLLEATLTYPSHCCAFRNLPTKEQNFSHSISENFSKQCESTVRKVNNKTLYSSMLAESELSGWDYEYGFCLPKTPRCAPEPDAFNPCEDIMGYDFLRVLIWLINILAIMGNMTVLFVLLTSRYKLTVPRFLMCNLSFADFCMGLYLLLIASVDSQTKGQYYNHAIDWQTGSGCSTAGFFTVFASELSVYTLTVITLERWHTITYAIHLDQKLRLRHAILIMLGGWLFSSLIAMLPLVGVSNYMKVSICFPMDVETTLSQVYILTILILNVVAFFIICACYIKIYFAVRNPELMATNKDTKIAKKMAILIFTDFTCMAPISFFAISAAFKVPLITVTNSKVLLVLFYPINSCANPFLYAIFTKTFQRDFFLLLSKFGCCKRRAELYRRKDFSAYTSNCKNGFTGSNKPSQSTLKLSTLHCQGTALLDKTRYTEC

Compound	NanoBRET Fold Response ([1]; tracer 0.1μM)	NanoBRET Fold Response ([1]; tracer 1μM)	NanoBRET Fold Response ([2]; tracer 0.1μM)	NanoBRET Fold Response ([2]; tracer 1μM)	NanoBRET Fold Response ([3]; tracer 0.1μM)	NanoBRET Fold Response ([3]; tracer 1μM)	NanoBRET Fold Response ([4]; tracer 0.1μM)	NanoBRET Fold Response ([4]; tracer 1μM)	NanoBRET Fold Response ([1]; 0.1μM)	NanoBRET Fold Response ([1]; 1μM)	NanoBRET Fold Response ([2]; 0.1μM)	NanoBRET Fold Response ([2]; 1μM)	NanoBRET Fold Response ([3]; 0.1μM)	NanoBRET Fold Response ([3]; 1μM)	NanoBRET Fold Response ([4]; 0.1μM)	NanoBRET Fold Response ([4]; 1μM)
O=C(CCOCCOCCOCCOCCNC(=O)CCc1ccc2n1[B-](F)(F)[N+]1=C(c3ccc[nH]3)C=CC1=C2)NCCCN1CCN(C2=Nc3ccccc3Oc3ccc(Cl)cc32)CC1 [Loxapine-a-2-NB590]	1.05	0.91	1.05	0.98	0.97	1.08	0.97	1.15								
COc1ccccc1N1CCN(CCCCN2C(=O)c3ccc(CNC(=O)CCOCCOCCOCCOCCNC(=O)CCc4ccc5n4[B-](F)(F)[N+]4=C(c6ccc[nH]6)C=CC4=C5)cc3C2=O)CC1 [NAN-190-2-NB590]	0.99	0.86	1.00	0.97	1.03	0.96	0.98	1.04								
COc1ccccc1N1CCN(CCCCN2C(=O)c3ccc(CNC(=O)CCOCCNC(=O)c4ccc(CNC(=O)CCc5ccc6n5[B-](F)(F)[N+]5=C(c7ccc[nH]7)C=CC5=C6)cc4)cc3C2=O)CC1 [NAN-190-3-NB590]	0.90	1.01	0.98	0.94	0.90	0.93	0.98	1.08								
O=C(CCc1ccc2n1[B-](F)(F)[N+]1=C(c3ccc[nH]3)C=CC1=C2)NCc1ccc(C(=O)NCCOCCC(=O)N[C@@H]2CC[C@@]3(O)[C@H]4Cc5ccc(O)c6c5[C@@]3(CCN4CC3CC3)[C@H]2O6)cc1 [Naltrexone-3-NB590]	1.32	0.81	0.79	0.93	0.99	1.02	0.89	1.12								
Cc1cc2c(s1)Nc1ccccc1N=C2N1CCN(CCCNC(=O)CCOCCOCCOCCOCCNC(=O)CCc2ccc3n2[B-](F)(F)[N+]2=C(c4ccc[nH]4)C=CC2=C3)CC1 [Olanzapine-a-2-NB590]	1.03	0.97	1.07	0.89	1.01	1.01	1.00	1.01								
O=C(CCc1ccc2n1[B-](F)(F)[N+]1=C(c3ccc[nH]3)C=CC1=C2)NCc1ccc(C(=O)NCCOCCOCCNCC(O)COc2cccc3ccccc23)cc1 (centres unmarked) [Propranolol-3-NB590]									1.08	1.03	1.05	0.91	1.05	1.07	1.04	1.00
O=C(CCc1ccc2n1[B-](F)(F)[N+]1=C(c3ccc[nH]3)C=CC1=C2)NCCOCCOCCNC(=O)OCCOCCN1CCN(C2=Nc3ccccc3Sc3ccccc32)CC1 [Quetiapine-a-2-NB590]	0.90	0.95	1.05	0.93	0.86	1.02	1.01	0.79								
Cc1nc2n(c(=O)c1CCN1CCC(c3noc4cc(F)ccc34)CC1)CCCC2OC(=O)NCCOCCOCCOCCOCCNC(=O)CCc1ccc2n1[B-](F)(F)[N+]1=C(c3ccc[nH]3)C=CC1=C2 (centres unmarked) [Risperidone-2-NB590]	1.06	1.02	1.01	0.81	0.93	0.98	0.99	1.04								
CC(C)N(CC[C@H](c1ccccc1)c1cc(CCNC(=O)CCOCCOCCOCCOCCNC(=O)CCc2ccc3n2[B-](F)(F)[N+]2=C(c4ccc[nH]4)C=CC2=C3)ccc1O)C(C)C [Tolterodine-2-NB590]	1.32	1.06	0.97	1.07	1.04	1.01	1.08	1.02								
CC(C)N(CC[C@H](c1ccccc1)c1cc(CCNC(=O)c2ccc(CNC(=O)CCc3ccc4n3[B-](F)(F)[N+]3=C(c5ccc[nH]5)C=CC3=C4)cc2)ccc1O)C(C)C [Tolterodine-BZ-NB590]	0.94	0.98	0.97	1.06	1.00	0.99	0.98	1.05								

— PMC8151276, “An Integrated Approach toward NanoBRET Tracers for Analysis of GPCR Ligand Engagement” (Molecules, 2021)
